Article PMC6145916, “Interaction of mitochondrial fission factor with dynamin related protein 1 governs physiological mitochondrial function in vivo” (Scientific Reports, 2018)
Where no end group is shown, it is not given here.

Columns and labels:
primary cortical neurons = assay: Mitochondrial membrane potential (TMRM), primary cortical neurons; format: cell-based, rat; settings: overnight treatment; n = 3, with 3 replicates
Protocol: Bottom, quantification of the form factor (degree of branching) and aspect ratio (major/minor axis length). At least 10,000 mitochondrial fragments were analyzed for each condition. Mitochondrial reactive oxygen species production (MitoSox Red) (b) and membrane potential (TMRM) (c) after overnight treatment with indicated concentrations of peptide (n = 3, with 3 replicates). […] Overlay of live microscopy imaging at time 0 (green) and 150 (red) seconds. […] An estimation of the % mobile mitochondria from the Pearson coefficient of each set of images. Data are mean ± s.e.
Following treatment, cells were washed with treatment media.
The Cy5 filter was used to autofocus on the mitochondria plane. Nuclei were imaged with a DAPI filter and the mitoROS (MitoSox) or membrane potential (TMRM) image was acquired with a TRITC filter. […] MitoROS was calculated as the average MitoSox signal per cell. The mitochondrial membrane potential was calculated as the average TMRM signal in the mitochondrial mask.
Mitochondrial reactive oxygen species determination […]
and 1% penicillin-streptomycin solution (Corning, NY, USA). Primary cortical neurons were treated with increasing concentrations of peptides in NbActiv1 media. HD Patient- and adult- […]
and without phenol red. […] After incubation
HEPES, and without phenol red. […]
calculated as the average MitoSox signal per cell. […]

striatal neurons = assay: Transmission electron microscopy of striatum; format: in vivo, mouse; settings: 3 mg/Kg/day, 8 weeks, WT mice; 806 (TAT) and 1109 (P259) mitochondria from ten images per condition
Source text: (a) Quantification of mitochondrial Drp1 content relative to ALDH2 (a mitochondrial matrix enzyme) in the mitochondrial fraction isolated from total brain lysate of wild-type mice (Western blot shown in Fig. S3B) (n = 4 mice). (b) ATP content in brain tissue of wild-type mice (n = 4 mice, 2 replicates). (c) Representative transmission electron microscopy images of the striatum from wild-type mice. […] The first principal component represents 42% of the variation. (f) Local linear embedding dimensionality reduction and visualization of all behaviors collected weekly from TAT- (black) or P259- (purple) treated WT and TAT- (white) treated R6/2 mice over the course of 8 weeks. […] All behavior and survival tests were conducted by an experienced observer who was blinded to the treatment groups. Data are mean ± s.e.
Five-week old R6/2 HD mice and their wild-type littermates (a total of 60 mice) were implanted subcutaneously with a 28-d Alzet osmotic pump with either P259-TAT or TAT control peptide (15 mice per group) to be delivered continuously at a rate of 3 mg/Kg/day, as previously described. All mice were implanted twice for a total of an 8-week treatment. 20 of the WT mice were implanted 3 times for a total of a 12-week treatment at 3 mg/Kg/day. […]
To quantify mitochondrial motility, the images at time 0 and 150 seconds w ere overlaid. […]

Substance: YGRKKRRQRRRGSGIIQLPEIVVV-NH2 (C-terminus assumed) [P259]
- mitochondrial membrane potential (primary cortical neurons): decreased membrane potential
- mitochondrial size and shape in striatal neurons (electron microscopy) (striatal neurons): larger and more elongated mitochondria in striatal neurons
